In one data set the target is human 5-HT4 receptor (Homo sapiens (Human), UniProt Q13639). Kind of data set: Binding affinity of compounds for 5-HT4 receptor ([H3]-GR113808 radioligand, COS-7 membrane homogenates). As to the method:
The binding affinity of the compounds for a human 5-HT4 receptor was assayed according to the method as disclosed in the literature [Wyngaert et al., Journal of Neurochemistry, (1997) 69, 1810-1819]. For this purpose, COS-7 cells expressing the human 5-HT4 receptor were constructed and homogenized to obtain membrane homogenates which were then used in binding assay experiments. For the binding assay, the membrane homogenates were respectively mixed and incubated with different concentrations of test materials and [H3]-GR113808 (Amersham Biosciences). The concentrations of the individual test materials were set to 4 μM, 1 μM, 0.25 μM, and 0.0625 μM, respectively, and the concentration of [H3]-GR113808 was set to 0.595 nM. After the incubation was completed, the reaction products were collected in GF/B glass fiber filters using a Packard cell harvester, and the bound radioactivity was then determined using a liquid cell scintillation counter (Packard TopCount NXT™, Perkin Elmer). Specific binding of the radioligand to the 5-HT4 receptor was calculated by subtracting the non-specific binding of the radioligand from the total radioligand binding. IC50 was calculated from % inhibition of specific binding of the radioligand to the 5-HT4 receptor, with respect to varying concentrations of the test materials.

A further data set has as its system SD rats. Kind of data set: Evaluation of gastric emptying. It is filed as in vivo, rat. The note with it: 5 mg/kg oral, semi-solid diet 1 hour after dosing, stomach extracted 50 minutes after meal. As to the method: Evaluation of gastric emptying was carried out based on the method described in Iwanaga Y, et al., Jpn J Pharmacol. 1991, 56(3), 261-269. As experimental animals, SD rats (240 to 250 g) were used and divided into groups (n=5 to 6). On the day prior to the experiment, animals were fasted for 18 hours. Test materials were formulated as suspensions thereof in 0.5% (w/v) methylcellulose and were orally administered to the animals at a dose of 5 mg/kg. 1 hour after the oral administration of the test materials, 2 mL of a semi-solid diet was orally administered to the animals. The semi-solid diet was in the form of porridge formulated by pulverizing a standard solid diet together with distilled water in a mixer. 50 minutes after the administration of the semi-solid diet, the animals were sacrificed by cervical dislocation. After carrying out an abdominal incision, the stomach was extracted from the animals. The weight of diet remaining in the stomach was measured to thereby determine the gastric emptying rate (%). The gastric emptying rate was calculated according to the following equation.
Gastric Emptying Rate (%)=(1−X/Y)*100
X: Weight of diet remaining in the stomach extracted 50 minutes after administration of meal
Y: Weight of diet remaining in the stomach extracted immediately after administration of meal

Another data set deals with ICR mice. Nature of the data set: Acute oral toxicity of compounds in mice. The format is in vivo. The note with it: male ICR mice, single oral dose 1 g/10 mL/kg, 2 weeks observation. On the procedure:
200 mg of each of Example compounds was triturated in 1% hydroxypropyl methyl-cellulose, and the resulting triturations were then orally administered to 5-week old male ICR mice (20 g±2 g, n=5) at a dose of 1 g/10 mL/kg. The minimum lethal dose (MLD, mg/kg) of the individual compounds was investigated by the observation of the mortality, body weight, clinical symptoms and the like of animals over the entire experimental period of 2 weeks.

A further data set has as its target hERG potassium channel (Homo sapiens (Human), UniProt Q12809). Nature of the data set: Binding affinity for hERG potassium channel ([H3]-Astemizole radioligand, HEK-293 membrane homogenates, MDS Pharma Service). The following applies: probe [H3]-Astemizole (1.5 nM), 10 μM test material, 1.5 nM [H3]-Astemizole, hERG K+ channel, HEK-293 membranes. On the procedure: The binding affinity of the compounds for the human ether-a-go-go-related gene (hERG) potassium (K+) channel which is associated with cardiac QT prolongation was assayed in MDS Pharma Service (Catalog No. 265900). Membrane homogenates were obtained from mammalian HEK-293 cells expressing the hERG potassium channel and then used in the binding assay experiment. For the binding assay experiment, the membrane homogenates were respectively mixed and incubated with 10 μM of test materials and 1.5 nM of [H3]-Astemizole (Perkin Elmer). After the incubation was completed, the radioactivity bound to the hERG K+ channel was counted. The affinity of each test material for the hERG K+ channel was calculated from % inhibition of specific binding of the radioligand to the hERG K+ channel, resulting from the action of the test material.

Setting [1] is: inhibition of specific binding of 0.595 nM [H3]-GR113808 to human 5-HT4 receptor, COS-7 membranes, read-out: IC50.

Read-outs that look alike come from different tables or passages of the source.

Sequence of hERG potassium channel (Q12809 whole entry): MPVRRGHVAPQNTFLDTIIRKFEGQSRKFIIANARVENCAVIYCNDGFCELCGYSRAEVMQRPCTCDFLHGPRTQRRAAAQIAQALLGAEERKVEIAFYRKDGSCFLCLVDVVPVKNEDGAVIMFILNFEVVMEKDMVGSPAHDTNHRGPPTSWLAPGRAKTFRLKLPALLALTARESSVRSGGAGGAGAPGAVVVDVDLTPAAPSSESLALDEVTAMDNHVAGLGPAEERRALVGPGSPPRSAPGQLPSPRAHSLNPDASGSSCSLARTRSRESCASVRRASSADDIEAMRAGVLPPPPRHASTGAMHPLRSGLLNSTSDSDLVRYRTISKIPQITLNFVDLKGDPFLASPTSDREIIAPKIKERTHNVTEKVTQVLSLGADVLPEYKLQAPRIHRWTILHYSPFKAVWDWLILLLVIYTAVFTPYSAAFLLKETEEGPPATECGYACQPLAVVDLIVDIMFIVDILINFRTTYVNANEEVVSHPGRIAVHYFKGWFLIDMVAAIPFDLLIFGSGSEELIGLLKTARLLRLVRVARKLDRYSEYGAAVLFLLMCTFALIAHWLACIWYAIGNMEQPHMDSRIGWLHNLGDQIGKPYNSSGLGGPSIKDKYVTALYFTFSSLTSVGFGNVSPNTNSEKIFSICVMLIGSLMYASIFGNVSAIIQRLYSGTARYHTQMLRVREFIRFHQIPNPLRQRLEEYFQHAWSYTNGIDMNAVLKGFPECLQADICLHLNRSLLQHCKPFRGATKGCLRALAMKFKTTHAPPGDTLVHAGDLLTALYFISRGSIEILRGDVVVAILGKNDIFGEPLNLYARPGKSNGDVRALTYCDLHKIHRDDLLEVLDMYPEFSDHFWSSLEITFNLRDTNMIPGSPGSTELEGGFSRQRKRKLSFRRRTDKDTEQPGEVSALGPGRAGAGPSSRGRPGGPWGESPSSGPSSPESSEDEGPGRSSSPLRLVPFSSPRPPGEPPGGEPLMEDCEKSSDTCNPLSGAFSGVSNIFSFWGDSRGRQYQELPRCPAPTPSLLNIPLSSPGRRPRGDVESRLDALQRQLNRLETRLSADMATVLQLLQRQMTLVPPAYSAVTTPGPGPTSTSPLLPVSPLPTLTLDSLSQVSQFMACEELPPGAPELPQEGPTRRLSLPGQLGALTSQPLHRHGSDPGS
Sequence of human 5-HT4 receptor (Q13639 whole entry): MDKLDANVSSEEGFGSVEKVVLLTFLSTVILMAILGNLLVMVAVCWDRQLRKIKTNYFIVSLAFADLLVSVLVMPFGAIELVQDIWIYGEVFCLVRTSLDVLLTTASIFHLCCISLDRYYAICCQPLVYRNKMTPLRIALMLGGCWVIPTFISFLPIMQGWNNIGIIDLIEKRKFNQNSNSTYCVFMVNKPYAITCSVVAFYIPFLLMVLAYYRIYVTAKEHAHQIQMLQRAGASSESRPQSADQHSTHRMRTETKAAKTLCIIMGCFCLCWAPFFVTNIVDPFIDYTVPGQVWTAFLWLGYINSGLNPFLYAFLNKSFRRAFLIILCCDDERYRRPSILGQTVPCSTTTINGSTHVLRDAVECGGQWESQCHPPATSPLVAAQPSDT

With `COc1cc(N)c(Cl)cc1C(=O)NCC1CCN(CCCn2nccn2)CC1` [Example 8, N-((1-(3-(1,2,3-triazol-2-yl)propyl)piperidin-4-yl)methyl)-4-amino-5-chloro-2-methoxybenzamide], the IC50 at human 5-HT4 receptor (setting [1]) was found to be 0.182 nM. Further, the Gastric emptying rate in the data set on SD rats was found to be 49.1%. For the same compound, the “Minimum lethal dose (MLD)” value in the data set with ICR mice is reported as over 1000 mg/kg. In addition, on hERG potassium channel, the inhibition at 10 μM was 15%.
With `COc1cc(N)c(Cl)cc1C(=O)NCC1CCN(Cc2cccn2C)CC1` [Example 12, N-((1-((1-methylpyrrol-2-yl)methyl)piperidin-4-yl)methyl)-4-amino-5-chloro-2-methoxybenzamide], the half-inhibitory concentration (IC50) on human 5-HT4 receptor (setting [1]) was 0.421 nM. Moreover, the Gastric emptying rate with SD rats is listed as 62.0%. For the same compound, the “Minimum lethal dose (MLD)” value with ICR mice is over 1000 mg/kg. Besides, the inhibition at 10 μM on hERG potassium channel was found to be 32%.
In the case of `COc1cc(N)c(Cl)cc1C(=O)NCC1CCN(CCCn2cncn2)CC1` [Example 1, N-((1-(3-(1,2,4-triazol-1-yl)propyl)piperidin-4-yl)methyl)-4-amino-5-chloro-2-methoxybenzamide], the IC50 on human 5-HT4 receptor (setting [1]) is 0.226 nM. Moreover, in the data set with SD rats, the Gastric emptying rate turned out to be 43.0%. Moreover, the “Minimum lethal dose (MLD)” value in the data set on ICR mice is listed as over 1000 mg/kg. The inhibition at 10 μM at hERG potassium channel stood at 1%.
For `COc1cc(N)c(Cl)cc1C(=O)NCC1CCN(CCCn2ccnc2C)CC1` [Example 4, N-((1-(3-(2-methylimidazol-1-yl)propyl)piperidin-4-yl)methyl)-4-amino-5-chloro-2-methoxybenzamide] the same measures were 0.229 nM, 46.4%, over 1000 mg/kg and 14%.
For the compound `COc1cc(N)c(Cl)cc1C(=O)NCC1CCN(CCCn2ccc3ccccc32)CC1` [Example 3, N-((1-(3-(indol-1-yl)propyl)piperidin-4-yl)methyl)-4-amino-5-chloro-2-methoxybenzamide], at human 5-HT4 receptor (setting [1]), the IC50 was determined as 0.039 nM. The Gastric emptying rate in the data set on SD rats amounted to 45.2%. Moreover, the “Minimum lethal dose (MLD)” value in the data set with ICR mice was over 1000 mg/kg.
Turning to `COc1cc(N)c(Cl)cc1C(=O)NCC1CCN(Cc2cn(C)c3ccccc23)CC1` [Example 10, N-((1-((1-methylindol-3-yl)methyl)piperidin-4-yl)methyl)-4-amino-5-chloro-2-methoxybenzamide], the IC50 at human 5-HT4 receptor (setting [1]) was determined as 0.076 nM. Further, in the data set on SD rats, the Gastric emptying rate is 59.1%. Further, the “Minimum lethal dose (MLD)” value with ICR mice was over 1000 mg/kg.
In the case of `COc1cc(N)c(Cl)cc1C(=O)NCC1CCN(CCc2c[nH]c3ccccc23)CC1` [Example 15, N-((1-(2-(indol-3-yl)ethyl)piperidin-4-yl)methyl)-4-amino-5-chloro-2-methoxybenzamide], at human 5-HT4 receptor, the IC50 worked out at 0.002 nM. The compound further displayed a Gastric emptying rate with SD rats of 41.3%. Further, in the data set on ICR mice, the “Minimum lethal dose (MLD)” value is recorded as over 1000 mg/kg.
Consider `COc1cc(N)c(Cl)cc1C(=O)NCC1CCN(Cc2ncc[nH]2)CC1` [Example 11, N-((1-(imidazol-2-ylmethyl)piperidin-4-yl)methyl)-4-amino-5-chloro-2-methoxybenzamide], for which the IC50 on human 5-HT4 receptor (setting [1]) turned out to be 0.454 nM. The same compound registered a Gastric emptying rate with SD rats of 43.1%. Also, the “Minimum lethal dose (MLD)” value in the data set on ICR mice was over 1000 mg/kg. On hERG potassium channel, this compound registered an inhibition at 10 μM of 21%.
Take `COc1cc(N)c(Cl)cc1C(=O)NCC1CCN(CCCn2cnnn2)CC1` [Example 2, N-((1-(3-(tetrazol-1-yl)propyl)piperidin-4-yl)methyl)-4-amino-5-chloro-2-methoxybenzamide]: the IC50 at human 5-HT4 receptor (setting [1]) came out at 0.164 nM. Also, in the data set with SD rats, the Gastric emptying rate is given as 52.8%. In addition, in the data set with ICR mice, the “Minimum lethal dose (MLD)” value is over 1000 mg/kg. On hERG potassium channel, the inhibition at 10 μM amounted to 4%.
Regarding `COc1cc(N)c(Cl)cc1C(=O)NCC1CCN(Cc2ccc(O)cc2)CC1` [Example 14, N-((1-(4-hydroxybenzyl)piperidin-4-yl)methyl)-4-amino-5-chloro-2-methoxybenzamide], at human 5-HT4 receptor (setting [1]), the IC50 was determined as 0.375 nM. This compound showed a Gastric emptying rate in the data set with SD rats of 42.1%. The “Minimum lethal dose (MLD)” value with ICR mice is given as over 1000 mg/kg. The compound further had an inhibition at 10 μM at hERG potassium channel of 40%.
For `COc1cc(N)c(Cl)cc1C(=O)NCC1CCN(CCCCCn2ccnn2)CC1` [Example 6, N-((1-(5-(1,2,3-triazol-1-yl)pentyl)piperidin-4-yl)methyl)-4-amino-5-chloro-2-methoxybenzamide] the same measures were 0.103 nM, 46.0%, over 1000 mg/kg and 8%.
For `COc1cc(N)c(Cl)cc1C(=O)NCC1CCN(Cc2ccc(F)cc2)CC1` [Example 13, N-((1-(4-fluorobenzyl)piperidin-4-yl)methyl)-4-amino-5-chloro-2-methoxybenzamide] the same measures were 0.134 nM, 52.3%, over 1000 mg/kg and 52%.
As to `COc1cc(N)c(Cl)cc1C(=O)NCC1CCN(CCCn2ccnn2)CC1` [Example 7, N-((1-(3-(1,2,3-triazol-1-yl)propyl)piperidin-4-yl)methyl)-4-amino-5-chloro-2-methoxybenzamide], on human 5-HT4 receptor (setting [1]), the IC50 turned out to be 0.067 nM. In the data set on SD rats, the Gastric emptying rate is on record as 56.1%. The “Minimum lethal dose (MLD)” value with ICR mice was over 1000 mg/kg. Besides, the inhibition at 10 μM at hERG potassium channel turned out to be 7%.
Consider `COc1cc(N)c(Cl)cc1C(=O)NCC1CCN(Cc2cccnc2)CC1` [Example 9, N-((1-(pyridin-3-ylmethyl)piperidin-4-yl)methyl)-4-amino-5-chloro-2-methoxybenzamide], for which, at human 5-HT4 receptor (setting [1]), the IC50 turned out to be 0.267 nM. In addition, the Gastric emptying rate with SD rats was determined as 51.2%. Also, the “Minimum lethal dose (MLD)” value in the data set on ICR mice was over 1000 mg/kg. On hERG potassium channel, this compound came in with an inhibition at 10 μM of 6%.
As to `COc1cc(N)c(Cl)cc1C(=O)NCC1CCN(CCCCCn2ccc3ccccc32)CC1` [Example 5, N-((1-(5-(indol-1-yl)pentyl)piperidin-4-yl)methyl)-4-amino-5-chloro-2-methoxybenzamide], the IC50 at human 5-HT4 receptor (setting [1]) is 0.005 nM. Besides, the Gastric emptying rate in the data set with SD rats is on record as 52.0%. In addition, the “Minimum lethal dose (MLD)” value with ICR mice was over 1000 mg/kg.

(Values after patent publication US9221790B2, “Benzamide derivatives” (Dong-A Pharm. Co., Ltd., priority 2010, dated 2015).)
